The subject of one assay is acetyl p53K382. Put plainly: Acetylation of overexpressed p53 in HEK293T cells, Western blot. It counts as cell-based. Particulars: HEK293T transfected with p300 and p53, 24 hr.
From the text: Figure 2.

Another assay deals with Kasumi-1 cells. Put plainly: Growth and apoptosis of Kasumi-1 cells (trypan blue, annexin V/7AAD). The assay is classed as cell-based, human. As to conditions: for Apoptosis, annexin V/7AAD double staining: Kasumi-1, 24 hr. The text has this: (§1) Previously, we reported that the leukemogenicity of the AML1-ETO fusion protein, generated by a t(8;21) translocation in acute myelogenous leukemia, is regulated by p300-mediated acetylation of lysine 43 of the fusion protein ([Wang et al., 2011]).
(§2) Figure 4. […] (B) Kasumi-1 and AE9a cells treated or not with salicylate were counted by trypan-blue exclusion under light microscopy. […] The percentage of sub-G1 cells is shown. […] Cells were counted by trypan-blue exclusion under light microscopy. […] DOI: http://dx.doi.org/10.7554/eLife.11156.011
(§3) HEK293T cells (ATCC) were maintained in DMEM supplemented with 10% FCS. The viability of Kasumi-1 cells and AE9a mouse leukemia cells was assessed in triplicate by trypan blue exclusion. The Kasumi cell line was isolated and characterized by one of the coauthors (S. Nimer) ([Becker et al., 2008]). All cell lines were tested annually for mycoplasma contamination. Only negative mycoplasma cultures were used during the conduct of these experiments.
(§4) Apoptosis was analyzed with an Annexin V-APC/7AAD Apoptosis kit (Becton-Dickinson) according to manufacturer’s instructions. To assess the distribution of nuclear DNA content in the cell-cycle analysis, cells were collected, washed in PBS, fixed overnight in 75% ethanol at –20°C, treated with 1% RNase A for at least 15 min at 37°C, and stained with […] propidium iodide. To monitor CD34 expression, the cells were stained with an allophycocyanin-conjugated anti-CD34 antibody (Becton Dickinson). To monitor CD11b expression, the cells were stained with a phycoerythrin-conjugated anti-CD11b antibody (Beckman-Coulter). To monitor C-kit and Mac-1 expression, the cells were stained with allophycocyanin-conjugated anti-C-kit and phycoerythrin-conjugated anti-Mac-1 antibodies (Becton-Dickinson). Cells were sorted with a Becton-Dickinson FACSCalibur, and the data were analyzed with FlowJo software.

Assay [1] deals with AE9a-driven AML cell line. Kind of assay: Growth and apoptosis of AE9a cells (trypan blue, annexin V/7AAD). It counts as cell-based, mouse. As to conditions: for Apoptosis, annexin V/7AAD double staining: 24 hr.
From the text: as §1, §2, §3, §4

Assay [2] relates to histone acetylation (H2BK12/K15) in HEK293T cells. Put plainly: Site-specific histone acetylation in HEK293T cells by Western blot. It counts as cell-based. As to conditions: for Deacetylation of specific histone residues: Western blot; for pIC50: Homo sapiens, HEK-293T. As for the experimental part: To determine whether salicylate induces histone deacetylation directly in cells, we treated HEK293T cells with various concentrations of salicylate.
Figure 2. Salicylate inhibits specific lysine acetylation of histone and nonhistone proteins independently of AMPK activation. […] HEK293T cells were treated with the indicated concentrations of sodium salicylate for 24 hr. Site-specific histone acetylation was detected by Western blot with specific antisera. Bands were quantified with Image J software. Acetylation was normalized to that of untreated cells and plotted. Representative results are shown in Supplementary Figure 1. Experiments are repeated and error bars indicate SEM. […] HEK293T cells were transfected with increasing amounts of expression vectors for p300 or F1504A or PCAF, treated with sodium salicylate for 24 hr, and analyzed by Western blotting analysis with an antiserum specific for acetyl histone H2BK12/K15. Bands were quantified with Image J software. Acetylation was normalized to that of untreated control. Average levels of relative acetylation are plotted and error bars indicate SEM. Representative results are shown in Supplementary Figure 2—figure supplement 2. (E) IC50 values generated from all curves in panel (B) and (D) were plotted against the amount of plasmid transfected (p300 or PCAF). (F), (G) HEK293 T cells were transfected with expression vectors for p300 and NF-κB p65 (F) or p53 (G), treated with salicylate for 24 hr, and analyzed by Western blot with specific antibodies against acetyl NF-κBK310 (F) or acetyl p53K382 and acetyl H2BK12/15 (G). Compound C (10 μM), a specific AMPK inhibitor, was added to salicylate-treated cells for 24 hr before Western blot (G). KR, p65 K310R mutant DOI: http://dx.doi.org/10.7554/eLife.11156.005 Figure 2—figure supplement 1. Salicylate induces histone deacetylation in HEK293T cells HEK293T cells were treated with sodium salicylate as indicated for 24 hr, immediately lysed in Laemmli buffer, and then subjected to western blot analysis with the indicated antibodies. Histones H2A, H2B, H3 and H4 were used as input loading controls. Experiments are repeated five times and representative data are shown. DOI: http://dx.doi.org/10.7554/eLife.11156.006 [drawing 2] Figure 2—figure supplement 2. Salicylate-induced deacetylation of histone H2B can be rescued by overexpression of p300, but not PCAF, in a dose-dependent manner. (A) Overexpression of p300 but not PCAF specifically leads to hyperacetylation of histone H2B. […] H2B acetylation was measured by western blot and the specified antibodies. (B) Overexpression of p300 but not PCAF rescued salicylate-induced H2B deacetylation in a dose-dependent manner. […] H2B acetylation was measured by Western Blot and the specified antibodies. […]

pIC50: −log10 of the molar value. Where two headings read alike, the source gives them in different places.

Consider `O=C(O)c1cc(-c2ccc(F)cc2F)ccc1O` [diflunisal], for which the “Acetylation of p53 K382” value with acetyl p53K382 is reported as “suppressed acetylation”. Further, the “Apoptosis, annexin V/7AAD double staining” value (with Kasumi-1 cells; in assay [1]) was “increased apoptosis in a dose-dependent manner” in each case. Moreover, the Kasumi-1 cell growth entry in the assay on Kasumi-1 cells (trypan-blue exclusion counts) is given as “inhibition of growth”. In addition, in assay [2] (HEK293T cells, 24 hr), the “Deacetylation of specific histone residues” value was “induced deacetylation of specific histone residues, H2AK5, K9, H2BK12/K15, H3K56”. Moreover, the pIC50 in assay [2] (24 h, read-out: IC50 for H2BK12/K15 inhibition in cells) was 3.80.

As to `O=C(O)c1ccccc1O` [salicylate, salicylic acid], the “Acetylation of p53 K382” value with acetyl p53K382 is on record as “decreased acetylation”. Moreover, the “Apoptosis, annexin V/7AAD double staining” value (with Kasumi-1 cells; in assay [1]) was “increased apoptosis” throughout. The “Concentration inhibiting cell proliferation” value in the assay with Kasumi-1 cells (Kasumi-1, trypan-blue exclusion counts) is listed as ≥ 1 mM; in assay [1] (trypan-blue exclusion counts), ≥ 1 mM. Also, the “Deacetylation of specific histone residues” value in assay [2] (HEK293T cells, 24 hr) is “deacetylation of H2AK5/K9, H2BK12/K15, and H3K56 in a dose-dependent manner”. Besides, the pIC50 in assay [2] (HEK293T cells, 24 hr, read-out: IC50 for inhibition of H2B acetylation) was 2.32.
